The structures appear in SMILES notation.

For series [1], the system named is Cyp2D6. Also noted: method as in PubChem BioAssay ID 1461. The settings on record: ref PubChem BioAssay ID 1461; cited from earlier work.
For series [2], the target named is T1, hERG potassium channel (Homo sapiens, UniProt Q12809).
T1 construct: host or cells: CHO
The series is described as follows: hERG inhibition, patch-clamp with CHO-hERG transfectants. The settings on record: hERG tail current, 0.008-25 uM. The format is cell-based. As to the method:
A patch-clamp assay with single CHO-hERG cell transfectants were used to quantify potential α-NETA-dependent hERG inhibition (2–3 cells per compound concentration). […] The cell was depolarized, and the hERG tail current was measured, and IC50 determined (Cyprotex/Evotec AG).

The subject of series [3] is Cyp1A2. Also noted: method as in PubChem BioAssay ID 1476. The settings on record: ref PubChem BioAssay ID 1476; cited from earlier work.
Series [4] deals with T2, Cyp2C19 (Homo sapiens, UniProt P33261).
T2 construct: tissue Cyprotex/Evotec AG; host or cells: human liver microsomes
The series is described as follows: Cyp enzyme inhibition in human liver microsomes. In kind it is in vitro ADME. The settings on record: 30 min pre-incubation.

Series [5] relates to Cyp3A4. Also noted: method as in PMID 25437209. The settings on record: substrate luciferin-6′ phenylpiperazinylyl; PubChem; cited from earlier work.
Series [6] concerns Pregnane X receptor (PXR). The series is described as follows: Cyp induction: PXR luciferase reporter in human hepatoma cell line. The format is cell-based. The settings on record: concentrations up to 50 uM. The protocol:
Pregnane X receptor (PXR) activation was used as a marker of Cyp induction. An engineered human hepatoma cell line with a PXR luciferase reporter was incubated with the indicated concentrations of α-NETA, Rifampicin (positive control), or DMSO (negative control), and luciferase activity assessed (Cyprotex/Evotec AG).

The target in series [7] is T3, Cyp2C8 (Homo sapiens, UniProt P10632).
T3 construct: tissue Cyprotex/Evotec AG; host or cells: human liver microsomes
T3 sequence (P10632 1-490): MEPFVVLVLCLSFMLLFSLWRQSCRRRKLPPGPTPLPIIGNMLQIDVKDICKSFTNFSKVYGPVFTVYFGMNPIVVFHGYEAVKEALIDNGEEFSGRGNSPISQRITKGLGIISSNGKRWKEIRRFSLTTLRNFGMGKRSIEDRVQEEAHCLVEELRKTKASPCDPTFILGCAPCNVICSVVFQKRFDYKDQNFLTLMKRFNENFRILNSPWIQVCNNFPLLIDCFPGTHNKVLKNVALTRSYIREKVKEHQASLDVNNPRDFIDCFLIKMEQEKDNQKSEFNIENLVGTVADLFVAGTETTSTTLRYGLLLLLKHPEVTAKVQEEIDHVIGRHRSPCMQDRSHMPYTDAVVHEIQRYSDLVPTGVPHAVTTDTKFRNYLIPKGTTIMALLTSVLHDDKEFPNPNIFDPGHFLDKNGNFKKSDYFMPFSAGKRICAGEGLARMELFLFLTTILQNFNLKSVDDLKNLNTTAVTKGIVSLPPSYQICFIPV
The series is described as follows: Cyp enzyme inhibition in human liver microsomes. The format is in vitro ADME. The settings on record: 30 min pre-incubation.

Series [8] has as its system C57BL/6 mice with EAE. The series is described as follows: Experimental autoimmune encephalomyelitis (EAE), MOG35–55/CFA immunization. In kind it is in vivo, mouse. As to the method: C57BL/6 mice were purchased from The Jackson Laboratory. […] Animal experiments were conducted in accordance with approved Veterans Affairs, National Institutes of Health, and Institutional Animal Care and Use Committee guidelines.
CFA consisted of 5 mg/ml mTB (Mycobacterium-tuberculosis H37 Ra, BD Difco) in IFA (Incomplete Freund’s Adjuvant, Sigma). MOG35–55 was reconstituted at 2 mg/ml in PBS. Mice also received 200 ng pertussis toxin (List Biological Laboratories, Inc) by i.p. injection at the time of immunization and two days later. […] For a direct comparison to α-NETA, the DMF and compound doses were also 10 mg/kg in 10% captisol. Mice were monitored daily for clinical disease and scored (0 = normal/healthy, 1 = limp tail, 2 = hindlimb weakness, 3 = hindlimb paralysis, 4 = hindlimb and forelimb paralysis, 5 = moribund/dead).

The test system of series [9] is (hu)CMKLR1 L1.2 cells. The series is described as follows: Chemotaxis assay toward huChemerin. The format is cell-based, human. The settings on record: Homo sapiens; (hu)CMKLR1 L1.2 cells migrating toward huChemerin, 2 h; read-out: Chemotaxis IC50 mean ± SEM (n). The protocol: (hu)CMKLR1 transfectants (generated in L1.2 pre-B cell lymphoma cells) were grown in RPMI 1640 (Corning) supplemented with L-glutamine, penicillin-streptomycin, and 10% BCS and G418-sulfate (KSE Scientific). DiscoverX PathHunter® CHO-K1 CMKLR1 β-Arrestin Cells were grown in RPMI lacking phenol red (Gibco, Life Technologies), supplemented with L-glutamine, penicillin-streptomycin, sodium pyruvate, non-essential amino acid, BCS, hygromycin, and G418-sulfate.
(hu)CMKLR1 L1.2 cells at 1 × 10^6 cell/ml were treated with 5 mM sodium butyrate (Sigma) overnight to induce hCMKLR1 expression. The next day, cells were washed in migration media (RPMI + 0.5%BSA) and resuspended at 1.5–3 × 10^6 cell/ml. Cells were pre-incubated at RT for 10 min with various concentrations of α-NETA or test compounds (α-NETA and test compounds were reconstituted in DMSO; final DMSO concentration in each well was 0.1%). 100 ul of cells were added to the upper chamber of a 24-well transwell plate (5 um pore size, Costar). Cells were allowed to migrate toward huChemerin ([…] in migration media, bottom chamber) for 2 h, 37 °C, 5% CO2. The number of migrated cells was quantified by flow cytometry (BD LSR2), and live cells were distinguished based on FSC × SSC properties. The background for this assay was typically low with 0 cells migrating to the buffer alone. For each independent trial, data was normalized to the maximum migration per compound tested and an IC50 value was generated using GraphPad Prism software. The average IC50 value for n independent trials (as specified in the table) is reported.

Series [10] concerns the target T4, CYP3A4 (Homo sapiens, UniProt P08684).
T4 construct: tissue Cyprotex/Evotec AG; host or cells: human liver microsomes
The series is described as follows: Cyp enzyme inhibition in human liver microsomes. In kind it is in vitro ADME.

Series [11] is described as follows: Repeat dosing toxicity, 14 days. The settings on record: C57BL/6, mouse, in vivo, po; repeated dosing p.o. for up to 14 days; read-out: no-observable-adverse-effect-level (NOAEL).
Method: Mouse survival was monitored and body weight was measured daily for the length of the study. On day 14 the mice were euthanized and the wet weight for the following tissues: kidney, brain, spleen, liver, heart, and lung, was recorded.
Series [12] has as its system Salmonella typhimurium (TA100). The series is described as follows: Ames test for genotoxicity (AMES-MOD ISO). The settings on record: concentrations up to at least 10 uM.
Method: Ames test was completed using the AMES-MOD ISO 96 well format assay, Version 1.1 (Environmental Bio-Detection Products Inc.) according to manufacturer’s instructions. In brief, Salmonella typhimurium (TA100) bacterial strain was exposed to the indicated doses of sodium azide (positive control) or α-NETA solubilized in DMSO (1% DMSO/well, 48 wells/dose completed in triplicate). After 2 h incubation the cells were diluted and cultured in media lacking histidine but containing pH indicator to identify revertant cell growth. After 3 days of incubation at 37 °C, the number of wells containing revertant cells was counted per dose.

T4 sequence (P08684 whole entry): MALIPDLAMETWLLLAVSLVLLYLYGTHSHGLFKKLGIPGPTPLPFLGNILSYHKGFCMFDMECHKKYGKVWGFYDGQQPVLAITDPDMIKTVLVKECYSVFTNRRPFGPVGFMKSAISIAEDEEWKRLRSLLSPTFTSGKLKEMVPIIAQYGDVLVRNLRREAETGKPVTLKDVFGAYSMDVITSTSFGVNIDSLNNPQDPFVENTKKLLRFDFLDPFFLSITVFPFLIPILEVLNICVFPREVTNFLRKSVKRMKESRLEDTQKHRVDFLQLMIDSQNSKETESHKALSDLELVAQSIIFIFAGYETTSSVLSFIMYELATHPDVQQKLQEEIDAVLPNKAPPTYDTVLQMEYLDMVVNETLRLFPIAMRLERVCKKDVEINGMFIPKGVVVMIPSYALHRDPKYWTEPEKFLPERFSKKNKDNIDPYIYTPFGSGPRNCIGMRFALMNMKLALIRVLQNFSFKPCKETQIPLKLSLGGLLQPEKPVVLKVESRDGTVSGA
T1 sequence (Q12809 whole entry): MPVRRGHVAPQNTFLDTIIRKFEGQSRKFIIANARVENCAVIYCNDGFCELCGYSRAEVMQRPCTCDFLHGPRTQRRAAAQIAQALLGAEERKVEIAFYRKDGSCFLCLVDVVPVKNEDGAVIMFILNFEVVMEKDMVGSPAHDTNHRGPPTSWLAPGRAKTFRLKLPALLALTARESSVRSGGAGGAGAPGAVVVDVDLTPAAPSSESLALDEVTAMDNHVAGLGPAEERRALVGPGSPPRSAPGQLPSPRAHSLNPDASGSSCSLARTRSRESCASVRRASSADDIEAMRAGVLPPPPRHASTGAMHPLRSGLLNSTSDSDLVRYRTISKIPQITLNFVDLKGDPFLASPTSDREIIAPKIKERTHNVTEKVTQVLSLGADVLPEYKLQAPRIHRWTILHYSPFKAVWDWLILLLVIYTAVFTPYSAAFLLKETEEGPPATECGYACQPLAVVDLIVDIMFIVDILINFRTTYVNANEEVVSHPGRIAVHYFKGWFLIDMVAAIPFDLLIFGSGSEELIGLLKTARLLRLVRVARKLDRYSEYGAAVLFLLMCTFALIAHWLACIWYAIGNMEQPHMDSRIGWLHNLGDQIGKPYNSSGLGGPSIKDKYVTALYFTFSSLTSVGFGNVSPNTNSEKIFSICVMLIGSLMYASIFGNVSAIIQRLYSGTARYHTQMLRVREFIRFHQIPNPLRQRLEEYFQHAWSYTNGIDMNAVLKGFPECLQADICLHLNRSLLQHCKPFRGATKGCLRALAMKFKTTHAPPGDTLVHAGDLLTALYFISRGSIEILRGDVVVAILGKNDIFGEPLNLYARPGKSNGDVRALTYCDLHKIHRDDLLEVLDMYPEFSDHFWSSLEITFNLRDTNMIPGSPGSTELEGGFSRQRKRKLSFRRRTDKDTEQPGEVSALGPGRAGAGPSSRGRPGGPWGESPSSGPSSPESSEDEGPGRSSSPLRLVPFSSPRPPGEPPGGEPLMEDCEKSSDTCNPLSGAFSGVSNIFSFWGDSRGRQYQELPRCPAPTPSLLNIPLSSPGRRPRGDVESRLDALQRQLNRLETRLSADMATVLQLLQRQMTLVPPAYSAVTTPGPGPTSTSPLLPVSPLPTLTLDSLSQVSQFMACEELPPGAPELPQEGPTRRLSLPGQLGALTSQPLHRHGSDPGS
T2 sequence (P33261 whole entry): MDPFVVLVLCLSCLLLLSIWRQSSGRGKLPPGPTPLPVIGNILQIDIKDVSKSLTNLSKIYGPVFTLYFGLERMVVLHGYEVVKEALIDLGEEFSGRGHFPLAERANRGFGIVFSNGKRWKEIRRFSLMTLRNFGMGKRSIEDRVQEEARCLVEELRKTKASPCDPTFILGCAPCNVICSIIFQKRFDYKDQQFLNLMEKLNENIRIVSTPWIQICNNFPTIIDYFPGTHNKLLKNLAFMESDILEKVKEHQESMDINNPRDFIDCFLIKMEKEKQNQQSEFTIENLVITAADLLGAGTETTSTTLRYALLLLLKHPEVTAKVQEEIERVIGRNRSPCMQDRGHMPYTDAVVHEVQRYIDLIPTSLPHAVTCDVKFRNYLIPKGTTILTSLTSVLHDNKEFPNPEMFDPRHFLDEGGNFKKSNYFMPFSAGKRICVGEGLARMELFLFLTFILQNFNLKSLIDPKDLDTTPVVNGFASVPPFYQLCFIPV

`C[N+](C)(C)CCC(=O)c1cccc2ccccc12.[I-]` [α-NETA, 2-(α-naphthoyl) ethyltrimethylammonium iodide]: the IC50 in [1] is greater than 10 µM; in [2], 10.4 µM; in [3], 8 µM; in series [4], 84 µM; in [5], 0.2 µM; in series [7] it was 1.5 µM. The IC50 in series [9] was found to be 37 ± 8.9 µM; in series [10] (human, liver microsomes, probe midazolam, substrate Midazolam), 7.4 µM; in series [10] (substrate Midazolam), 7.5 µM; in [10] (substrate testosterone), 6.9 µM. Further, the “PXR activation (marker of Cyp induction)” value in series [6] is “did not induce substantial PXR activity”. Moreover, the “day of EAE onset (mean ± SEM)” value in series [8] (Fig. 1 study, 10 mg/kg daily in 10% captisol, s.c., d29 onset assumed for 2 α-NETA mice) came to 21 ± 2 days. Moreover, in series [8] (Table 4, 10 mg/kg daily to D21, n = 8), the “Day of onset (Mean ± SEM)” value amounted to 14.4 ± 0.6. Moreover, the “Maximum Score (Mean ± SEM)” value in [8] (Table 4, 10 mg/kg daily to D21, n = 8, clinical score 0-5) is on record as 2.6 ± 0.2. In addition, the “AUC (Mean ± SEM) of clinical score” value in series [8] (Table 4, 10 mg/kg daily to D21, n = 8, mean clinical score x day) is 31.9 ± 4.0. For the same compound, the no-observed-adverse-effect level (NOAEL) at 14 days in series [11] is no less than 300 mg/kg. The “mutagenesis in Ames test (histidine revertants)” value in series [12] is reported as “did not induce mutagenesis”.

These data come from paper PMC6509344, “Novel CMKLR1 Inhibitors for Application in Demyelinating Disease” (Scientific Reports, 2019).
